What was measured:
[1] = tested on: HSV-1 K26-GFP infected primary human skin cells; assay: % change of HSV-1 GFP signal vs untreated infected cells; higher = less antiviral inhibition; conditions: cell type: primary dermal fibroblasts, time (h post infection): 48
Method: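 2D primary donor-derived dermal fibroblasts infected with GFP-HSV-1 K26 at MOI 1, treated 1 h later with compound dilutions and read at 48 hpi on IncuCyte. GFP integrated intensity is normalised to mock-infected and untreated infected wells (% change; -100 = full inhibition).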

[2] = tested on: HSV-1 K26-GFP infected 3D skin equivalent; assay: % activity on HSV-1 GFP signal (0 = infected DMSO control, -100 = uninfected control); higher = higher signal (negative = inhibition / toxicity); conditions: time (h post infection): 48
Method: (§1)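 Triplicate dose-response (0.04 to 10 uM) of 11 top compounds in 3D bioprinted skin equivalents (submerged and ALI models) infected with GFP-HSV-1 K26 at MOI 0.1 and fixed at 48 hpi. GFP (virus) and tdTomato (fibroblast viability) signals are normalised to per-plate controls.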

[3] = tested on: HSV-1 K26-GFP infected 3D skin equivalent; assay: % change of tdTomato fibroblast signal relative to infected DMSO control; higher = higher signal (negative = inhibition / toxicity); conditions: time (h post infection): 48
Method: as §1

[4] = tested on: HSV-1 K26-GFP infected primary human skin cells; assay: % change of HSV-1 GFP signal vs untreated infected cells; higher = less antiviral inhibition
Method: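 2D primary donor-derived keratinocytes (read at 20 hpi) and donor-matched dermal fibroblasts (read at 48 hpi) infected with GFP-HSV-1 K26 at MOI 1 and treated 1 h later with compound dilutions. IncuCyte GFP integrated intensity is normalised by subtracting mock-infected wells and dividing by untreated infected wells, shown as % change (-100 = full inhibition).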

O=C(Nc1ccc([N+](=O)[O-])cc1Cl)c1cc(Cl)ccc1O [Niclosamide]
Conditions | % activity on HSV-1 GFP signal [%] | % change of HSV-1 GFP signal [%] | % change of tdTomato fibroblast signal [%]
[1], 0.003 µM, donor: 3 | – | 15.6 | –
[1], 0.003 µM, donor: 4 | – | -6.77 | –
[1], 0.0091 µM, donor: 3 | – | 8.69 | –
[1], 0.0091 µM, donor: 4 | – | -8.38 | –
[1], 0.0274 µM, donor: 3 | – | 9.83 | –
[1], 0.0274 µM, donor: 4 | – | -13.9 | –
[1], 0.0823 µM, donor: 3 | – | -4.14 | –
[1], 0.0823 µM, donor: 4 | – | -18.7 | –
[1], 0.2469 µM, donor: 3 | – | -45.2 | –
[1], 0.2469 µM, donor: 4 | – | -48.5 | –
[1], 0.7407 µM, donor: 3 | – | -76.3 | –
[1], 0.7407 µM, donor: 4 | – | -63.1 | –
[1], 2.2222 µM, donor: 3 | – | -89.3 | –
[1], 2.2222 µM, donor: 4 | – | -95.5 | –
[1], 6.6667 µM, donor: 3 | – | -99.57 | –
[1], 6.6667 µM, donor: 4 | – | -99.828 | –
[1], 20 µM, donor: 3 | – | -100.1 | –
[1], 20 µM, donor: 4 | – | -99.921 | –
[1], 60 µM, donor: 3 | – | -100.1 | –
[1], 60 µM, donor: 4 | – | -99.98 | –
[2], 0.041152 µM, model: ALI | -0.742 | – | –
[2], 0.041152 µM, model: submerged | -3.85 | – | –
[2], 0.123457 µM, model: ALI | -58.6 | – | –
[2], 0.123457 µM, model: submerged | -3.15 | – | –
[2], 0.37037 µM, model: ALI | -102 | – | –
[2], 0.37037 µM, model: submerged | -59.6 | – | –
[2], 1.111111 µM, model: ALI | -99.3 | – | –
[2], 1.111111 µM, model: submerged | -88.3 | – | –
[2], 3.33333 µM, model: ALI | -103 | – | –
[2], 3.33333 µM, model: submerged | -92.9 | – | –
[2], 10 µM, model: ALI | -98.7 | – | –
[2], 10 µM, model: submerged | -97.1 | – | –
[3], 0.041152 µM, model: ALI | – | – | 8.37
[3], 0.041152 µM, model: submerged | – | – | -8.01
[3], 0.123457 µM, model: ALI | – | – | 0.996
[3], 0.123457 µM, model: submerged | – | – | -14.3
[3], 0.37037 µM, model: ALI | – | – | -9.97
[3], 0.37037 µM, model: submerged | – | – | -34
[3], 1.111111 µM, model: ALI | – | – | -7.62
[3], 1.111111 µM, model: submerged | – | – | -44.6
[3], 3.33333 µM, model: ALI | – | – | -10.3
[3], 3.33333 µM, model: submerged | – | – | -44.5
[3], 10 µM, model: ALI | – | – | -8.58
[3], 10 µM, model: submerged | – | – | -47.05

% change of HSV-1 GFP signal [%], [4]
Conditions | 0.003 µM | 0.0091 µM | 0.0274 µM | 0.0823 µM | 0.2469 µM | 0.7407 µM | 2.2222 µM | 6.6667 µM | 20 µM | 60 µM
cell type: primary dermal fibroblasts, donor: 5, time (h post infection): 48 | -6.14 | -7.3 | -10.1 | -19.9 | -37 | -51.4 | -90 | -99.53 | -99.789 | -99.78
cell type: primary keratinocytes, donor: 3, time (h post infection): 20 | 4.62 | 3.94 | 6.19 | 9.78 | 4.16 | 0.034 | -16.7 | -24.7 | -62.7 | -81.3
cell type: primary keratinocytes, donor: 4, time (h post infection): 20 | -0.953 | -7.59 | -0.315 | -0.334 | -9.22 | -11.5 | -22.6 | -42.3 | -61.2 | -95.4
cell type: primary keratinocytes, donor: 5, time (h post infection): 20 | 2.55 | -1.84 | 0.0858 | 1.91 | 2.59 | -2.44 | -35.9 | -52.8 | -76.5 | -95.1

C=CC(=O)N1CC/C(=C\c2ccc(F)c([N+](=O)[O-])c2)C(=O)/C(=C/c2ccc(F)c([N+](=O)[O-])c2)C1 [VLX1570]
Conditions | % activity on HSV-1 GFP signal, [2] [%] | % change of tdTomato fibroblast signal, [3] [%]
0.041152 µM, model: ALI | 12.8 | -0.238
0.041152 µM, model: submerged | -7.34 | 0.174
0.123457 µM, model: ALI | -18.6 | -3.26
0.123457 µM, model: submerged | -4.05 | -4.91
0.37037 µM, model: ALI | -96 | -1.14
0.37037 µM, model: submerged | -5.03 | -4.63
1.111111 µM, model: ALI | -97.3 | -12.1
1.111111 µM, model: submerged | -4.45 | -15
3.33333 µM, model: ALI | -103 | -17.4
3.33333 µM, model: submerged | -17.6 | -33.6
10 µM, model: ALI | -101 | -25.4
10 µM, model: submerged | -55.5 | -48

% change of HSV-1 GFP signal [%], [4]
Conditions | 0.001 µM | 0.003 µM | 0.0091 µM | 0.0274 µM | 0.0823 µM | 0.2469 µM | 0.7407 µM | 2.2222 µM | 6.6667 µM | 20 µM
cell type: primary dermal fibroblasts, donor: 5, time (h post infection): 48 | 1.14 | -5.38 | -8.21 | -7.07 | -8.61 | -9.37 | -7.7 | -10.9 | -99.906 | -99.87
cell type: primary keratinocytes, donor: 3, time (h post infection): 20 | 3.39 | 0.794 | 7.81 | 21.4 | 8.28 | 2.87 | 4.02 | -1.2 | -51.7 | -92.7
cell type: primary keratinocytes, donor: 4, time (h post infection): 20 | -7.51 | -5.56 | -6.93 | -1.76 | -3.15 | -3.18 | 6.11 | -25 | -97.4 | -100
cell type: primary keratinocytes, donor: 5, time (h post infection): 20 | 4.93 | 5.79 | 3.47 | 7.82 | 7.36 | 5.33 | 1.2 | -8.44 | -91.4 | -99.966

COc1ccc(-c2nc(N3CCOCC3)c3sc(CN(C)c4ncc(C(=O)NO)cn4)cc3n2)cn1 [Fimepinostat]
Conditions | % activity on HSV-1 GFP signal [%] | % change of HSV-1 GFP signal [%] | % change of tdTomato fibroblast signal [%]
[1], 0.003 µM, donor: 3 | – | 27.2 | –
[1], 0.003 µM, donor: 4 | – | -1.5 | –
[1], 0.0091 µM, donor: 3 | – | 32.4 | –
[1], 0.0091 µM, donor: 4 | – | -0.607 | –
[1], 0.0274 µM, donor: 3 | – | 30.4 | –
[1], 0.0274 µM, donor: 4 | – | -1.06 | –
[1], 0.0823 µM, donor: 3 | – | 27.5 | –
[1], 0.0823 µM, donor: 4 | – | 3.49 | –
[1], 0.2469 µM, donor: 3 | – | 29.4 | –
[1], 0.2469 µM, donor: 4 | – | -2.47 | –
[1], 0.7407 µM, donor: 3 | – | 21.4 | –
[1], 0.7407 µM, donor: 4 | – | -9.92 | –
[1], 2.2222 µM, donor: 3 | – | 14.6 | –
[1], 2.2222 µM, donor: 4 | – | -5.85 | –
[1], 6.6667 µM, donor: 3 | – | 11.3 | –
[1], 6.6667 µM, donor: 4 | – | -11.4 | –
[1], 20 µM, donor: 3 | – | 8.87 | –
[1], 20 µM, donor: 4 | – | -9.02 | –
[1], 60 µM, donor: 3 | – | 7.95 | –
[1], 60 µM, donor: 4 | – | -4.24 | –
[2], 0.041152 µM, model: ALI | -85.1 | – | –
[2], 0.041152 µM, model: submerged | 2.37 | – | –
[2], 0.123457 µM, model: ALI | -97.4 | – | –
[2], 0.123457 µM, model: submerged | 6.63 | – | –
[2], 0.37037 µM, model: ALI | -79.6 | – | –
[2], 0.37037 µM, model: submerged | -1.58 | – | –
[2], 1.111111 µM, model: ALI | -64.2 | – | –
[2], 1.111111 µM, model: submerged | -31.5 | – | –
[2], 3.33333 µM, model: ALI | -78.3 | – | –
[2], 3.33333 µM, model: submerged | -75.6 | – | –
[2], 10 µM, model: ALI | -88.6 | – | –
[2], 10 µM, model: submerged | -87.4 | – | –
[3], 0.041152 µM, model: ALI | – | – | -7.82
[3], 0.041152 µM, model: submerged | – | – | 12.3
[3], 0.123457 µM, model: ALI | – | – | -14
[3], 0.123457 µM, model: submerged | – | – | 9.59
[3], 0.37037 µM, model: ALI | – | – | -3.36
[3], 0.37037 µM, model: submerged | – | – | 12.7
[3], 1.111111 µM, model: ALI | – | – | -5.66
[3], 1.111111 µM, model: submerged | – | – | 8.55
[3], 3.33333 µM, model: ALI | – | – | -20.2
[3], 3.33333 µM, model: submerged | – | – | -1.39
[3], 10 µM, model: ALI | – | – | -11
[3], 10 µM, model: submerged | – | – | -3.36

% change of HSV-1 GFP signal [%], [4]
Conditions | 0.003 µM | 0.0091 µM | 0.0274 µM | 0.0823 µM | 0.2469 µM | 0.7407 µM | 2.2222 µM | 6.6667 µM | 20 µM | 60 µM
cell type: primary dermal fibroblasts, donor: 5, time (h post infection): 48 | -12.8 | -13.7 | -14.2 | -12.3 | -12 | -18.4 | -25.6 | -32.6 | -34.1 | -28.4
cell type: primary keratinocytes, donor: 3, time (h post infection): 20 | 6.27 | -3.11 | 2.91 | 1.02 | -16.3 | -33.2 | -41.3 | -43 | -64.7 | -48.6
cell type: primary keratinocytes, donor: 4, time (h post infection): 20 | -14.2 | -25.2 | -17.4 | -25 | -33 | -64.8 | -69.2 | -76.4 | -89.2 | -72.7
cell type: primary keratinocytes, donor: 5, time (h post infection): 20 | -6.73 | -26.4 | -15.1 | -24.8 | -44.7 | -48 | -58.2 | -64.6 | -70.5 | -57.8

From the supplement of paper PMC12533247
